The EC50 is the concentration at which the effect is half-maximal. The term IC90 denotes the point of the concentration-response curve where the effect stands at 90%.

For assay [1], the target named is human activated kallikrein enzyme (Homo sapiens, UniProt P03952). Put plainly: Plasma kallikrein inhibition, fluorogenic PFR-AMC substrate, 500 pM activated kallikrein format. The conditions noted are these: 500 pM activated kallikrein, 300 uM PFR-AMC, 30 min preincubation, 10 min reaction; read-out: Primary Dose Response Assay: Average EC50. The format is biochemical. The procedure, abridged:
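Enzyme (500 pM) was preincubated with inhibitor for 30 min at room temperature in 20 mM Tris pH 7.5, 1 mM EDTA, 150 mM NaCl, 0.1% PEG-400 and 0.1% Triton X-100. The reaction was started with 300 uM PFR-AMC, run 10 min, and fluorescence read at 460 nm (380 nm excitation). EC50 derived.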

A further assay addresses T1, plasma kallikrein (Homo sapiens, UniProt P03952).
T1 construct: from tissue
Briefly: Neat human plasma assay, FXIIa contact pathway-activated, PFR-AMC substrate. The assay is classed as biochemical. The conditions noted are these: citrated human plasma 78% final, 10 nM human FXIIa, 100 μM PFR-AMC; read-out: Human Plasma Assay: IC90. The procedure, abridged: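 Citrated human plasma (78% final) with compound, contact-activated by 10 nM human FXIIa in pKal buffer pH 7.5, with 100 μM PFR-AMC. Fluorescence (360/480 nm) followed 5 min at room temperature; rates versus concentration fitted by 4-parameter equation for IC50/IC90.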

T1 sequence (P03952 391-638 limits assumed): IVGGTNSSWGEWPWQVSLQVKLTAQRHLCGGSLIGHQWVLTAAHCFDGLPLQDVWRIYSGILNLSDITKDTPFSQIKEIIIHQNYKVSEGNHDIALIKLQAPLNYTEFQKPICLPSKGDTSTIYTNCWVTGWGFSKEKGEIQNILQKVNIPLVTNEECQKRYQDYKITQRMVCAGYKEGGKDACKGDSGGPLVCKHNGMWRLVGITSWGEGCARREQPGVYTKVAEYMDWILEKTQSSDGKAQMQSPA
T1 sequence (P03952 20-390 partner limits assumed): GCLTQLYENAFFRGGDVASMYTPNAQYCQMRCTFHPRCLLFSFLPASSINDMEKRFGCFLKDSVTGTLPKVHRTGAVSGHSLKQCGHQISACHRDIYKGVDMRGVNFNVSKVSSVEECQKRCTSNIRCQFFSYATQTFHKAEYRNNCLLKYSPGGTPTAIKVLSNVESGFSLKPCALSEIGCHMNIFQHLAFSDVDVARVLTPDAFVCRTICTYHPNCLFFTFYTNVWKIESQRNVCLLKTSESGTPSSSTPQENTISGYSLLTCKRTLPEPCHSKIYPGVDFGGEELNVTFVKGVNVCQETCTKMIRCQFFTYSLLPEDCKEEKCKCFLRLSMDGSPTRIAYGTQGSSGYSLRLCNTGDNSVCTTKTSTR
human activated kallikrein enzyme, sequence (P03952 391-638 limits assumed): as the sequence (P03952 391-638 limits assumed) above
human activated kallikrein enzyme, sequence (P03952 20-390 partner limits assumed): as the sequence (P03952 20-390 partner limits assumed) above

Turning to `COc1nc(NC(=O)[C@H]2C[C@@H]2c2nccc(C)n2)cc(N(C)Cc2cn3cc(C4CC4)cc(N4CC(=O)N(C)C4=O)c3n2)n1` [Example 406, (1S,2S)-N-(6-(((6-cyclopropyl-8-(3-methyl-2,4-dioxoimidazolidin-1-yl)imidazo[1,2-a]pyridin-2-yl)methyl)(methyl)amino)-2-methoxypyrimidin-4-yl)-2-(4-methylpyrimidin-2-yl)cyclopropane-1-carboxamide], in assay [1], the EC50 was < 1 nM. Further, the IC90 at plasma kallikrein is < 400 nM.
On the same counts, the results for `CN(C)C1CCN(c2cc(C3CC3)cn3cc(CNc4ccnc(NC(=O)[C@H]5C[C@@H]5c5cccc(Cl)c5)c4)nc23)C1` (stereo partly drawn) [Example I-25, (1S,2S)-2-(3-chlorophenyl)-N-(4-(((6-cyclopropyl-8-(3-(dimethylamino)pyrrolidin-1-yl)imidazo[1,2-a]pyridin-2-yl)methyl)amino)pyridin-2-yl)cyclopropane-1-carboxamide] are < 1 nM and 400 to 1500 nM.
Regarding `CN1CCN(c2cc(C3CC3)cn3cc(COc4ccnc(NC(=O)[C@H]5C[C@@H]5c5cccc(Cl)c5)c4)nc23)CC1` [Example 565, (1S,2S)-2-(3-chlorophenyl)-N-(4-((6-cyclopropyl-8-(4-methylpiperazin-1-yl)imidazo[1,2-a]pyridin-2-yl)methoxy)pyridin-2-yl)cyclopropane-1-carboxamide], the EC50 in assay [1] was 1 to 10 nM. Moreover, the IC90 on plasma kallikrein is 1500 to 10000 nM.
In the case of `CNC1CCN(c2cc(C3CC3)cn3cc(CNc4cc(NC(=O)[C@H]5C[C@@H]5c5cccc(Cl)c5)ncn4)nc23)C1` (stereo partly drawn) [Example I-16, (1S,2S)-2-(3-chlorophenyl)-N-(6-(((6-cyclopropyl-8-(3-(methylamino)pyrrolidin-1-yl)imidazo[1,2-a]pyridin-2-yl)methyl)amino)pyrimidin-4-yl)cyclopropane-1-carboxamide], the EC50 in assay [1] was < 1 nM. Also, the 90% effect concentration (IC90) at plasma kallikrein is 400 to 1500 nM.
On the same counts, the results for `O=C(Nc1nc(O)nc(NCc2cn3cc(C4CC4)ccc3n2)n1)[C@H]1C[C@@H]1c1cccc(Cl)c1` [Example 295, (1S,2S)-2-(3-chlorophenyl)-N-(4-(((6-cyclopropylimidazo[1,2-a]pyridin-2-yl)methyl)amino)-6-hydroxy-1,3,5-triazin-2-yl)cyclopropane-1-carboxamide] are < 1 nM and 1500 to 10000 nM.
On the same counts, the results for `COc1cc(N2CC(=O)N(C)C2=O)c2nc([C@@H](C)Nc3cc(NC(=O)[C@H]4C[C@@H]4c4nccc(C)n4)ncn3)cn2c1` [Example 415, (1S,2S)-N-(6-(((R)-1-(6-methoxy-8-(3-methyl-2,4-dioxoimidazolidin-1-yl)imidazo[1,2-a]pyridin-2-yl)ethyl)amino)pyrimidin-4-yl)-2-(4-methylpyrimidin-2-yl)cyclopropane-1-carboxamide] are < 1 nM and < 400 nM.
On the same counts, the results for `Cc1ccnc([C@H]2C[C@@H]2C(=O)Nc2nc(C)nc(N(C)Cc3cn4cc(C5CC5)cc(N5CC(=O)NC5=O)c4n3)n2)n1` (racemic) [Example 524, rac-(1S*,2S*)-N-(4-(((6-cyclopropyl-8-(2,4-dioxoimidazolidin-1-yl)imidazo[1,2-a]pyridin-2-yl)methyl)(methyl)amino)-6-methyl-1,3,5-triazin-2-yl)-2-(4-methylpyrimidin-2-yl)cyclopropane-1-carboxamide] are < 1 nM and 400 to 1500 nM.
Consider `O=C(Nc1cc(NCc2cn3cc(C4CC4)cc(CO)c3n2)ncn1)[C@H]1C[C@@H]1c1cccc(Cl)c1` (racemic) [Example 70, rac-(1S*,2S*)-2-(3-chlorophenyl)-N-(6-(((6-cyclopropyl-8-(hydroxymethyl)imidazo[1,2-α]pyridin-2-yl)methyl)amino)pyrimidin-4-yl)cyclopropane-1-carboxamide], for which, in assay [1], the concentration for a half-maximal effect (EC50) was in the range of 1 to 10 nM. The IC90 on plasma kallikrein was > 48000 nM.
For `O=C(Nc1cc(NCc2cn3cc(C4CC4)ccc3n2)ncn1)[C@H]1C[C@@H]1c1cccc(Cl)c1` (single isomer, unassigned) [Example 57], in that order: 1 to 10 nM and > 48000 nM.
For the molecule `COc1ccc(C#N)c([C@H]2C[C@@H]2C(=O)Nc2cc(OCc3cn4cc(C5CC5)cc(N5CC(=O)N(C)C5=O)c4n3)cnn2)c1` (racemic) [Example 559, rac-(1S*,2S*)-2-(2-cyano-5-methoxyphenyl)-N-(5-((6-cyclopropyl-8-(3-methyl-2,4-dioxoimidazolidin-1-yl)imidazo[1,2-a]pyridin-2-yl)methoxy)pyridazin-3-yl)cyclopropane-1-carboxamide], the concentration giving a half-maximal response (EC50) in assay [1] lay within 1 to 10 nM. Also, at plasma kallikrein, the IC90 was 400 to 1500 nM.
For `O=C(Nc1cc(NCc2cn3cc(C4CC4)cc(N4CCN(C5COC5)CC4)c3n2)ccn1)[C@H]1C[C@@H]1c1cccc(Cl)c1` [Example I-233, (1S,2S)-2-(3-chlorophenyl)-N-(4-(((6-cyclopropyl-8-(4-(oxetan-3-yl)piperazin-1-yl)imidazo[1,2-a]pyridin-2-yl)methyl)amino)pyridin-2-yl)cyclopropane-1-carboxamide], in that order: < 1 nM and 400 to 1500 nM.
On to `Cc1ccnc([C@H]2C[C@@H]2C(=O)Nc2cc(N3C[C@@H](O)C[C@@H]3c3cn4cc(C5CC5)cc(N5CCOC5=O)c4n3)ncn2)n1` (relative stereo) [Example 471, rac-(1S*,2S*)-N-(6-((2R,4S)-2-(6-cyclopropyl-8-(2-oxooxazolidin-3-yl)imidazo[1,2-a]pyridin-2-yl)-4-hydroxypyrrolidin-1-yl)pyrimidin-4-yl)-2-(4-methylpyrimidin-2-yl)cyclopropane-1-carboxamide], for which the EC50 in assay [1] is < 1 nM. Moreover, on plasma kallikrein, the 90% effect concentration (IC90) was in the range of 400 to 1500 nM.
For `Cc1ccnc([C@H]2C[C@@H]2C(=O)Nc2cc(NCc3cn4cc(C5CC5)cc(S(C)(=O)=O)c4n3)ncn2)n1` (single isomer, unassigned) [Example 324], in that order: < 1 nM and 400 to 1500 nM.
On the same counts, the results for `Cc1ccnc([C@H]2C[C@@H]2C(=O)Nc2cc(NCc3cn4cc(C5CC5)cc(N5C(=O)N(C)C(=O)C56CC6)c4n3)nc(C)n2)n1` [Example 357, (1S,2S)-N-(6-(((6-cyclopropyl-8-(6-methyl-5,7-dioxo-4,6-diazaspiro[2.4]heptan-4-yl)imidazo[1,2-a]pyridin-2-yl)methyl)amino)-2-methylpyrimidin-4-yl)-2-(4-methylpyrimidin-2-yl)cyclopropane-1-carboxamide] are < 1 nM and < 400 nM.
For `O=C(Nc1ncnc(NCc2cn3cc(C4CC4)ccc3n2)n1)[C@H]1C[C@@H]1c1cccc(Cl)c1` (racemic) [Example 344, (rac-(1S*,2S*))-2-(3-chlorophenyl)-N-(4-(((6-cyclopropylimidazo[1,2-a]pyridin-2-yl)methyl)amino)-1,3,5-triazin-2-yl)cyclopropane-1-carboxamide], in that order: 1 to 10 nM and 1500 to 10000 nM.
`Cc1cc(NCc2cn3cc(C4CC4)ccc3n2)cc(NC(=O)[C@H]2C[C@@H]2c2cc(Cl)ccc2C#N)n1` (racemic) [Example 342, rac-(1S*,2S*)-2-(5-chloro-2-cyanophenyl)-N-(4-(((6-cyclopropylimidazo[1,2-a]pyridin-2-yl)methyl)amino)-6-methylpyridin-2-yl)cyclopropane-1-carboxamide]: in assay [1], the EC50 is < 1 nM. Besides, the IC90 at plasma kallikrein was in the range of 1500 to 10000 nM.
